Read-outs that look alike come from different tables or passages of the source.
Tests used:
Format in all cases: in vivo
Apis mellifera [1] = assay: Greenhouse test / residue test / bees: mortality after contact with treated tomato leaves; conditions: 100 g a.s./ha
Excerpt: Der Versuch wurde wie folgt durchgeführt:
Die Tomatenpflanzen wurden im Gewächshaus mit den Testverbindungen bzw. der Referenzsubstanz behandelt (Spritzappliaktion, 3 fache Wiederholung). 1, 3, 6 und 13 Tage nach Behandlung (DAA) wurden Blätter entnommen (je 5 Blattproben pro Behandlung) und in Boxen gegeben. In jede Box wurden 10 Bienen transferiert und die Boxen wurden unter kontrollierten Bedingungen aufbewahrt, wobei die Bienen mit Zuckerlösung gefüttert wurden. 24, 48 und 72 nach Transfer der Bienen wurde deren Mortalität bestimmt. Tabelle 9 (siehe auch Figur 9)

Apis mellifera [2] = conditions: 150 g a.s./ha
Excerpt: (§1) Der Test wurde gemäß EPPO (European Plant Protection Organisation) Leitlinie 170 wie folgt durchgeführt:
Die Mortalität von Arbeiterbienen vor dem Bienenstock wird mittels einer Falle für tote Bienen (dead bee trap) bestimmt. Die Falle besteht aus Maschendraht und ist vor dem Bienenstock angebracht. Einzelne, lebende Bienen können die Maschen des Drahts passieren, der Transport toter Bienen durch die Maschen ist nicht möglich, weswegen tote Bienen sich in der Falle ansammeln. Tabelle 1 (siehe auch Figur 1)

Apis mellifera [3] = assay: Tunnel test / spray application / bees: brood development (share of comb cells); conditions: 150 g a.s./ha
Excerpt: as §1
Über alle Waben eines Bienenstocks wird der jeweilige Anteil an Zellen bestimmt, der durch Pollen, Nektar, Eier, Larven oder Puppen belegt ist bzw. leer ist. […]

Apis mellifera [4] = assay: Tunnel test / spray application / bees: foraging activity; conditions: 150 g a.s./ha
Excerpt: as §1
Während einer Minute werden in einem abgegrenzten Bereich von 2 x 1 m^2 die Bienen gezählt, die auf Blüten absitzen. Tabelle 3 (siehe auch Figur 3)

Apis mellifera [5] = assay: Tunnel test / spray application / bees: acute mortality of pupae in front of the hive; conditions: for Zahl toter Puppen: 150 g a.s./ha
Excerpt: as §1
Tabelle 2 (siehe auch Figur 2)

[6] = leaves taken 1 Tag nach Behandlung, 24 h contact
[7] = leaves taken 1 Tag nach Behandlung, 48 h contact
[8] = leaves taken 1 Tag nach Behandlung, 72 h contact
[9] = leaves taken 3 Tage nach Behandlung, 24 h contact
[10] = leaves taken 3 Tage nach Behandlung, 48 h contact
[11] = leaves taken 3 Tage nach Behandlung, 72 h contact
[12] = leaves taken 6 Tage nach Behandlung, 24 h contact
[13] = leaves taken 6 Tage nach Behandlung, 48 h contact
[14] = leaves taken 6 Tage nach Behandlung, 72 h contact
[15] = leaves taken 13 Tage nach Behandlung, 24 h contact
[16] = leaves taken 13 Tage nach Behandlung, 48 h contact
[17] = leaves taken 13 Tage nach Behandlung, 72 h contact

O=C1C=C(N(Cc2ccc(Cl)nc2)C2CC2)CO1 [I-9, 4-{[(6-Chlorpyrid-3-yl)methyl](cyclopropyl)amino}furan-2(5H)-on]
Mortalität (Apis mellifera [1]; [6]): 6% | Mortalität (Apis mellifera [1]; [7]): 9% | Mortalität (Apis mellifera [1]; [8]): 13% | Mortalität (Apis mellifera [1]; [9]): 2% | Mortalität (Apis mellifera [1]; [10]): 3% | Mortalität (Apis mellifera [1]; [11]): 4% | Mortalität (Apis mellifera [1]; [12]): 1% | Mortalität (Apis mellifera [1]; [13]): 2% | Mortalität (Apis mellifera [1]; [14]): 5% | Mortalität (Apis mellifera [1]; [15]): 8,7% | Mortalität (Apis mellifera [1]; [16]): 11% | Mortalität (Apis mellifera [1]; [17]): 12%

CCOC(=O)NCCOc1ccc(Oc2ccccc2)cc1 [Fenoxycarb, reference compound]
Zahl toter Arbeiterbienen (Apis mellifera [2]; 0 DAA b (15:15 Uhr)): 0 | Zahl toter Arbeiterbienen (Apis mellifera [2]; 0 DAA c (17:15 Uhr)): 0 | Zahl toter Arbeiterbienen (Apis mellifera [2]; 1 DAA): 1,3 | Zahl toter Arbeiterbienen (Apis mellifera [2]; 2 DAA): 0,7 | Zahl toter Arbeiterbienen (Apis mellifera [2]; 3 DAA): 0 | Zahl toter Arbeiterbienen (Apis mellifera [2]; 4 DAA): 2 | Zahl toter Arbeiterbienen (Apis mellifera [2]; 5 DAA): 1,3 | Zahl toter Arbeiterbienen (Apis mellifera [2]; 6 DAA): 3 | Zahl toter Arbeiterbienen (Apis mellifera [2]; 11 DAA): 1 | Zahl toter Arbeiterbienen (Apis mellifera [2]; -3 DAA (before application)): 1 | Anteil an Zellen: Eier (Apis mellifera [3]; 1 Tag vor Applikation): 12,5% | Anteil an Zellen: Larven (Apis mellifera [3]; 1 Tag vor Applikation): 14,2% | Anteil an Zellen: Leer (Apis mellifera [3]; 1 Tag vor Applikation): 25,8% | Anteil an Zellen: Nektar (Apis mellifera [3]; 1 Tag vor Applikation): 13,3% | Anteil an Zellen: Pollen (Apis mellifera [3]; 1 Tag vor Applikation): 2,2% | Anteil an Zellen: Puppen (Apis mellifera [3]; 1 Tag vor Applikation): 31,9% | Anteil an Zellen: Eier (Apis mellifera [3]; 6 Tage nach Applikation): 12,2% | Anteil an Zellen: Larven (Apis mellifera [3]; 6 Tage nach Applikation): 0,3% | Anteil an Zellen: Leer (Apis mellifera [3]; 6 Tage nach Applikation): 29,7% | Anteil an Zellen: Nektar (Apis mellifera [3]; 6 Tage nach Applikation): 20,8% | Anteil an Zellen: Pollen (Apis mellifera [3]; 6 Tage nach Applikation): 6,7% | Anteil an Zellen: Puppen (Apis mellifera [3]; 6 Tage nach Applikation): 30,3% | Anteil an Zellen: Eier (Apis mellifera [3]; 14 Tage nach Applikation): 18,3% | Anteil an Zellen: Larven (Apis mellifera [3]; 14 Tage nach Applikation): 10,6% | Anteil an Zellen: Leer (Apis mellifera [3]; 14 Tage nach Applikation): 52,2% | Anteil an Zellen: Nektar (Apis mellifera [3]; 14 Tage nach Applikation): 9,2% | Anteil an Zellen: Pollen (Apis mellifera [3]; 14 Tage nach Applikation): 5,3% | Anteil an Zellen: Puppen (Apis mellifera [3]; 14 Tage nach Applikation): 4,4% | Anteil an Zellen: Eier (Apis mellifera [3]; 27 Tage nach Applikation): 18,6% | Anteil an Zellen: Larven (Apis mellifera [3]; 27 Tage nach Applikation): 7,2% | Anteil an Zellen: Leer (Apis mellifera [3]; 27 Tage nach Applikation): 23,1% | Anteil an Zellen: Nektar (Apis mellifera [3]; 27 Tage nach Applikation): 21,9% | Anteil an Zellen: Pollen (Apis mellifera [3]; 27 Tage nach Applikation): 4,7% | Anteil an Zellen: Puppen (Apis mellifera [3]; 27 Tage nach Applikation): 24,4% | Zahl der Larven (Apis mellifera [3]; result in words, 6 Tage nach Applikation): starke Abnahme | Zahl der Puppen (Apis mellifera [3]; result in words, 14 Tage nach Applikation): starke Abnahme | Aktivität der Nahrungssuche, Zahl der Bienen / min / m^2 (Apis mellifera [4]; 0 DAA a (09:30 Uhr)): 26,2 Bienen / min / m^2 | Aktivität der Nahrungssuche, Zahl der Bienen / min / m^2 (Apis mellifera [4]; 0 DAA c (14:15 Uhr)): 38,7 Bienen / min / m^2 | Aktivität der Nahrungssuche, Zahl der Bienen / min / m^2 (Apis mellifera [4]; 0 DAA e (17:15 Uhr)): 46 Bienen / min / m^2 | Aktivität der Nahrungssuche, Zahl der Bienen / min / m^2 (Apis mellifera [4]; 1 DAA b (15:30 Uhr)): 19 Bienen / min / m^2 | Aktivität der Nahrungssuche, Zahl der Bienen / min / m^2 (Apis mellifera [4]; 2 DAA): 32,3 Bienen / min / m^2 | Aktivität der Nahrungssuche, Zahl der Bienen / min / m^2 (Apis mellifera [4]; 3 DAA): 38,7 Bienen / min / m^2 | Aktivität der Nahrungssuche, Zahl der Bienen / min / m^2 (Apis mellifera [4]; 6 DAA): 38,8 Bienen / min / m^2 | Aktivität der Nahrungssuche, Zahl der Bienen / min / m^2 (Apis mellifera [4]; -1 DAA (before application)): 27,3 Bienen / min / m^2 | Aktivität der Nahrungssuche, Zahl der Bienen / min / m^2 (Apis mellifera [4]; -2 DAA (before application)): 33,7 Bienen / min / m^2 | Aktivität der Nahrungssuche, Zahl der Bienen / min / m^2 (Apis mellifera [4]; -3 DAA (before application)): 25 Bienen / min / m^2 | Zahl toter Puppen (Apis mellifera [5]; 0 DAA c (17:15 Uhr)): 0 | Zahl toter Puppen (Apis mellifera [5]; 1 DAA): 0 | Zahl toter Puppen (Apis mellifera [5]; 2 DAA): 0 | Zahl toter Puppen (Apis mellifera [5]; 5 DAA): 0 | Zahl toter Puppen (Apis mellifera [5]; 6 DAA): 0 | Zahl toter Puppen (Apis mellifera [5]; 11 DAA): 9 | Zahl toter Puppen (Apis mellifera [5]; 14 DAA): 16,7 | Zahl toter Puppen (Apis mellifera [5]; 18 DAA): 26,7 | Zahl toter Puppen (Apis mellifera [5]; 21 DAA): 0 | Zahl toter Puppen (Apis mellifera [5]; 25 DAA): 1 | Zahl toter Puppen (Apis mellifera [5]; -3 DAA (before application)): 0 | Mortalität von Puppen vor dem Bienenstock (Apis mellifera [5]; result in words, tunnel test, spray, I-5 75 und 150 g a.s./ha, Fenoxycarb 150 g a.s./ha): 11-18 Tage nach Applikation eine Mortalität von Puppen

CN(Cc1ccc(Cl)nc1)C1=CC(=O)OC1 [I-10, 4-{[(6-Chlorpyrid-3-yl)methyl](methyl)amino}furan-2(5H)-on]
Mortalität (Apis mellifera [1]; [6]): 5% | Mortalität (Apis mellifera [1]; [7]): 5% | Mortalität (Apis mellifera [1]; [8]): 6% | Mortalität (Apis mellifera [1]; [9]): 3% | Mortalität (Apis mellifera [1]; [10]): 7% | Mortalität (Apis mellifera [1]; [11]): 8% | Mortalität (Apis mellifera [1]; [12]): 3% | Mortalität (Apis mellifera [1]; [13]): 4% | Mortalität (Apis mellifera [1]; [14]): 7% | Mortalität (Apis mellifera [1]; [15]): 6,7% | Mortalität (Apis mellifera [1]; [16]): 6,7% | Mortalität (Apis mellifera [1]; [17]): 6,7%
